# According to PubChem BioAssay (NCI):
# “And” between values parts separate entries of the source, which are not always exact repeats. Equal entries are not always repeated.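 Values below derive from 48-hour exposures of cells grown in 96-well plates, with endpoints linearly interpolated between the two concentrations bracketing the appropriate inhibition level. GI50 is the concentration that inhibits growth by half. TGI marks complete inhibition of growth.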
# Legend:
# Assay in all cases: NCI-60 cell line screen, 48 h
# LOX IMVI melanoma = system: LOX IMVI melanoma
# OVCAR-8 ovarian = system: OVCAR-8 ovarian
# TK-10 renal = system: TK-10 renal
# HL-60(TB) leukemia = system: HL-60(TB) leukemia
# A498 renal = system: A498 renal
# M14 melanoma = system: M14 melanoma
# SNB-75 CNS = system: SNB-75 CNS
# SF-268 CNS = system: SF-268 CNS
# NCI-H226 lung = system: NCI-H226 lung
# PC-3 prostate = system: PC-3 prostate
SMILES,TGI (LOX IMVI melanoma),TGI (OVCAR-8 ovarian),TGI (TK-10 renal) [µM],TGI (HL-60(TB) leukemia) [µM],TGI (A498 renal) [µM],TGI (M14 melanoma) [µM],TGI (SNB-75 CNS),TGI (SF-268 CNS),TGI (NCI-H226 lung),GI50 (LOX IMVI melanoma) [µM],GI50 (OVCAR-8 ovarian) [µM],GI50 (TK-10 renal) [µM],GI50 (HL-60(TB) leukemia) [µM],GI50 (A498 renal) [µM],GI50 (M14 melanoma) [µM],GI50 (SNB-75 CNS) [µM],GI50 (SF-268 CNS),GI50 (NCI-H226 lung) [µM],GI50 (PC-3 prostate) [µM],TGI (PC-3 prostate) [µM]
CCc1cc(Cc2ccc(C)c(NC(=O)C(=O)C3C(=O)NC(=O)NC3=O)c2CC)cc(C)c1NC(=O)C(=O)C1C(=O)NC(=O)NC1=O,> 100 µM,> 100 µM,> 100,> 100,> 100,> 100,> 100 µM,> 100 µM,,,,,,,,,,,,
O=C1C=Cc2ncccc2C1=O,26.9 µM,30.2 µM,> 58.8,36.1,> 91.5,32,49.8 µM,> 59.2 µM,> 58.7 µM,,,,,,,,,,,
[CH3][Sn]1([CH3])[O]CC(COc2cc(Cl)c(Cl)cc2Cl)[O]1 (centres undefined),> 100 µM,> 100 µM,> 100,> 100,> 100,> 100,68.8 µM,> 100 µM,> 100 µM,> 100,> 100,> 100,> 100,70,39.6,23.1,74.9 µM,30.7,,
CC(C)(C)Sc1nnc(SC(C)(C)C)c2c(=O)[nH]nc(SC(C)(C)C)c12,24.2 µM,22.1 µM,37.8,16.1,27.1,28.9,24.3 µM,21.2 µM,28.5 µM,,,,,,,,,,,
Cn1nc(-c2ccccc2)c(C(=O)/C=C/c2ccc(Cl)cc2)c(N2CCCC2)c1=O,39.2 µM,29.7 µM,26.6,4.97,,22.2,,20.2 µM,,,,,,,,,,,,
CC1=CC(=O)NP(=O)(C23CC4CC(CC(C4)C2)C3)N1 (centres undefined),> 100 µM,> 100 µM,> 100,> 100,> 100,> 100,> 100 µM,> 100 µM,> 100 µM,,,,,,,,,,,
S=c1c2ccccc2c(=S)n2n1CC=CC2,> 100 µM,> 100 µM,> 100,> 100,> 100,> 100,> 100 µM,> 100 µM,> 100 µM,,,,,,,,,,,
c1ccc(-c2nnc3nn4c(-c5ccccc5)cnnc4c3c2-c2ccccc2)cc1,> 100 µM,> 100 µM,83.1,> 100,> 100,> 100,83.9 µM,,> 100 µM,,,,,,,,,,,
CCCCNC1=C(C(=O)OCC)/C(=N/NC(=O)c2ccccc2O)CO1,> 100 µM,> 100 µM,> 100,> 100,> 100,> 100,,> 100 µM,> 100 µM,,,,,,,,,,,
Cc1ccc2nc(NC(=O)C(=O)CC(=O)c3cccc4ccccc34)sc2c1,> 100 µM,56.7 µM,44.6,> 100,> 100,44.2,36.5 µM,> 100 µM,> 100 µM,,,,,,,,,,,
Cc1cc(Nc2nc(-c3ccncc3)nc3ccccc23)n[nH]1,> 100 µM,> 100 µM,> 100,> 100,6.01,> 100,,> 100 µM,> 100 µM,2.69,11,2.07,10.7,0.654,10.3,,5.62 µM,13.8,,
C/C(=N/O)c1ccc(Nc2cc(-n3ccnc3)c3ccccc3n2)cc1,,25.5 µM,> 100,,94,> 100,73.5 µM,> 100 µM,89 µM,,6.01,16.4,,27.6,5.75,7.04,> 100 µM,30,3.69,> 100
O=C(/C=C/C1C(=O)NC(=O)NC1=O)CC(=O)C(=O)Nc1cc(Cl)c(Cl)cc1Cl,> 100 µM,> 100 µM,> 100,> 100,> 100,> 100,> 100 µM,> 100 µM,> 100 µM,,,,,,,,,,,
CCOC(=O)CC(NC(=O)c1ccc(N=NN(C)C)cc1)C(=O)OCC (centres undefined),> 100 µM,> 100 µM,> 100,> 100,> 100,> 100,> 100 µM,> 100 µM,> 100 µM,,,,,,,,,,,
O=C(Nc1nc2ccccc2s1)c1cc(-c2ccc(F)cc2)n2nc(-c3ccccc3)cc2n1,,,5.54,> 100,5.49,> 100,5.82 µM,> 100 µM,> 100 µM,,,2.45,> 100,1.86,3.13,1.75,3.89 µM,6.31,,
CC(C)[Si](OCC1CC(C#N)OC(C)(C)O1)(C(C)C)C(C)C (centres undefined),33.7 µM,48 µM,> 100,29.3,19.1,48.4,> 100 µM,82.7 µM,35 µM,,,,,,,,,,,

SMILES,TGI (LOX IMVI melanoma),TGI (OVCAR-8 ovarian),TGI (TK-10 renal) [µM],TGI (HL-60(TB) leukemia) [µM],TGI (A498 renal) [µM],TGI (M14 melanoma) [µM],TGI (SNB-75 CNS),TGI (SF-268 CNS),TGI (NCI-H226 lung),GI50 (LOX IMVI melanoma) [µM],GI50 (OVCAR-8 ovarian) [µM],GI50 (TK-10 renal) [µM],GI50 (HL-60(TB) leukemia) [µM],GI50 (A498 renal) [µM],GI50 (M14 melanoma) [µM],GI50 (SNB-75 CNS) [µM],GI50 (SF-268 CNS),GI50 (NCI-H226 lung) [µM],GI50 (PC-3 prostate) [µM],TGI (PC-3 prostate) [µM]
CC(C)N1C(C)[C@@H](c2ccccc2)O[P@]1(=O)CC1=CCCCC1 (some centres undefined),> 100 µM,> 100 µM,> 100,57.4,> 100,> 100,> 100 µM,> 100 µM,> 100 µM,,,,,,,,,,,
O=c1[nH]cc(C(F)(C(F)(F)F)C(F)(F)F)c(=O)[nH]1,> 100 µM,> 100 µM,> 100,> 100,> 100,> 100,> 100 µM,> 100 µM,> 100 µM,,,,,,,,,,,
O=S1(=O)c2ccccc2N=C(c2ccccc2Cl)CC1c1ccc(F)cc1 (centres undefined),34.2 µM,48.3 µM,50.4,45.4,35.7,35.3,47.8 µM,47.4 µM,,,,,,,,,,,,
CCCCCCCCCCCCCCCCCC(=O)NCC(COP(=O)(O)O)OCC (centres undefined),,> 100 µM,> 100,> 100,> 100,> 100,82.5 µM,61.2 µM,58.4 µM,,,,,,,,,,,
COc1ccc2c(c1)c1c3n2CCNN=C3CCC1,> 100 µM,> 100 µM,> 86.9,> 71.4,> 100,> 100,> 100 µM,> 100 µM,> 100 µM,,,,,,,,,,,
c1ccc(-c2ccnc3c2ccc2c(-c4ccccc4)ccnc23)cc1,14.8 µM,4.75 µM,0.994,3.69,6.99,17.6,9.43 µM,13.3 µM,4.76 µM,,,,,,,,,,,
Cc1noc(/N=C2\C=C(Nc3onc(C)c3C)C(=O)c3ccccc32)c1C,> 100 µM,> 100 µM,> 100,> 100,> 100,> 100,> 100 µM,> 100 µM,> 100 µM,,,,,,,,,,,
COC(=O)C(=O)C(C(=O)C(=O)Nc1cc(Cl)c(Cl)cc1Cl)c1nc2ccc([N+](=O)[O-])cc2[nH]c1=O (centres undefined),> 100 µM,> 100 µM,> 100,,,> 100,,> 100 µM,> 100 µM,,,,,,,,,,,
COC(=O)C(C(=O)C(N)=O)c1csc(-n2nc(-c3ccccc3)cc2-c2ccccc2)n1 (centres undefined),> 100 µM,> 31.6 µM,> 31.6,> 31.6,> 31.6,> 31.6,> 31.6 µM,> 31.6 µM,> 31.6 µM,,,,,,,,,,,
C#CCOCn1cnc2ncnc(N)c21,> 100 µM,> 100 µM,> 100,,> 100,,> 100 µM,> 100 µM,> 100 µM,,,,,,,,,,,
C/C(CC(=O)Nc1cccc([N+](=O)[O-])c1)=N\NC(=O)CC#N,> 100 µM,> 100 µM,> 100,> 100,,> 100,> 100 µM,> 100 µM,> 100 µM,,,,,,,,,,,
CC(=O)OC(=O)O/C=C\CCl,,> 100 µM,> 100,> 100,> 100,> 100,> 100 µM,> 100 µM,> 100 µM,,,,,,,,,,,
CC(=O)[C-](C(C)=O)c1ccccc1.CC(=O)[C-](C(C)=O)c1ccccc1.CC(=O)[C-](C(C)=O)c1ccccc1.[Cl-].[Zr+4],> 100 µM,> 100 µM,> 100,> 100,> 100,> 100,83.9 µM,> 100 µM,> 100 µM,> 100,57.5,> 100,> 100,> 100,> 100,33,61.7 µM,> 100,,
Cc1c2ccncc2c(C)c2c1[nH]c1ccc(Cl)cc12,6 µM and 2.94 µM,4.35 µM and 2.62 µM,18.1,,14.7,16.7,10 µM and 12.7 µM,12.5 µM and 25.2 µM,11 µM and 25.4 µM,,,,2.62,,,,2.63 µM and 2.66 µM,8.58,,
CC(=O)NC(CCCN(Cc1ccccc1)C(=O)N(C)N=O)C(=O)NCc1ccccc1 (centres undefined),> 100 µM,> 100 µM,> 100,,> 100,> 100,91 µM,> 100 µM,> 100 µM,,,,,,,,,,,
CC(=O)c1c2c(cc3c1CC1(C3)Cc3cc4c(c(C(=O)O)c3C1)CCC4)CCC2 (centres undefined),> 100 µM,> 100 µM,> 100,35.6,,> 100,> 100 µM,> 100 µM,,,,,,,,,,,,
